Earlier results in patent US6335036B1, “Granular pharmaceutical preparation of ebselen” (Daiichi Pharmaceutical Co., Ltd., priority 1996, dated 2002).

Conditions: known property, background art

Compound: O=c1c2ccccc2[se]n1-c1ccccc1 [Ebselen, 2-phenyl-1,2-benzisoselenazol-3(2H)-one]
- Solubility in water: slightly soluble in water
